Reference: ChEMBL document CHEMBL5154836, “4,5-Dihydroxypyrimidine Methyl Carboxylates, Carboxylic Acids, and Carboxamides as Inhibitors of Human Cytomegalovirus pUL89 Endonuclease” (J Med Chem, 2022)
Converted amounts (≈) assume the structure as drawn.

What was measured:
[1] = target: T1, Tripartite terminase subunit 3 (Human betaherpesvirus 5, UniProt P16732)
T1 sequence (P16732 whole entry): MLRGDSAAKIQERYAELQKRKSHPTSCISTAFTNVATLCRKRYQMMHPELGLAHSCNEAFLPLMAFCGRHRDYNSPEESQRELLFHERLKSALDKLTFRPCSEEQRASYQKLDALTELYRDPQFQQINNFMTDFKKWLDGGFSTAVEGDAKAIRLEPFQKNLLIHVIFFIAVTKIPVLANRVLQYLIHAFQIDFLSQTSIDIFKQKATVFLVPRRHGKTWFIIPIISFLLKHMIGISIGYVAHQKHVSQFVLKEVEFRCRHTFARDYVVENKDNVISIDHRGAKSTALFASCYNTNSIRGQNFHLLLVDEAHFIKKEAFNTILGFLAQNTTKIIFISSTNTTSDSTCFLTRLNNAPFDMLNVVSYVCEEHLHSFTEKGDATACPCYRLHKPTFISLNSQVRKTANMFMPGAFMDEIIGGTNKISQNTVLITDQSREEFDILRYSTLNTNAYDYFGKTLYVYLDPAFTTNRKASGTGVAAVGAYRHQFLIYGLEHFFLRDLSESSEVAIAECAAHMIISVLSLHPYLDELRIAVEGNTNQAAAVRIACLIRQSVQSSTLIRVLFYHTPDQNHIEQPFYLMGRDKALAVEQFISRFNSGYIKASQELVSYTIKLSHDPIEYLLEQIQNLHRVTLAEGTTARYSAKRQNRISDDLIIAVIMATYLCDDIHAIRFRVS

[2] = Apparent permeability coefficient of the compound incubated for 5 hrs by LC-MS/MS analysis based PAMPA method; format: ADME
HFF = assay: Cytotoxicity against HFF cells assessed as cell viability incubated for 168 hrs by MTS-based Cell Titer assay; format: toxicity; conditions: human
[3] = human, microsomes, 1 h
Description: Stability in human liver microsomes assessed as half life measured upto 60 mins in presence of NADPH by LC-MS/MS analysis

[4] = Stability of compound in CD-1 mouse plasma as compound remaining measured for 6 hrs by LC-MS/MS analysis; format: ADME, cell-free; conditions: read-out: Stability
[5] = mouse, microsomes, 1 h
Description: Stability in mouse liver microsomes assessed as half life measured upto 60 mins in presence of NADPH by LC-MS/MS analysis

[6] = Aqueous solubility of the compound in DPBS at pH 7.2 incubated for 72 hrs by LC-MS/MS analysis; format: physicochemical
[7] = mouse, plasma, 24 h
[8] = human, plasma, 24 h
[9] = Stability of compound in human plasma as compound remaining measured for 6 hrs by LC-MS/MS analysis; format: ADME, cell-free; conditions: read-out: Stability

Structure (SMILES) | IC50 [1] [µM] | other results
O=C(O)c1nc(Cc2ccc(F)cc2)[nH]c(=O)c1O | 0.74 | 
Cc1ccc(Cc2nc(C(=O)O)c(O)c(=O)[nH]2)cc1 | 0.92 | permeability [2]: 0.07 10^-6 cm/s
Cc1nc(C(=O)NCc2ccc(Cl)c(Cl)c2)c(O)c(=O)[nH]1 | 2.8 | 
COC(=O)c1nc(Cc2ccc(Cl)c(Cl)c2)[nH]c(=O)c1O | 2.1 | permeability [2]: 3.1 10^-6 cm/s
O=C(NCc1ccc(F)c(F)c1)c1nc(-c2cccs2)[nH]c(=O)c1O | 0.79 | 
O=C(O)c1nc(Cc2ccc(F)c(F)c2)[nH]c(=O)c1O | 0.87 | 
O=C(O)c1nc(-c2cccs2)nc(O)c1O |  | CC50 (HFF): > 100 µM; t1/2 [3]: > 120 h; remaining at 6 h [4]: > 94%; t1/2 [5]: > 120 h; solubility thermodynamic at 72 h [6]: 1480 µM (≈ 352 µg/mL); t1/2 [7]: > 24 h; t1/2 [8]: > 24 h; remaining at 6 h [9]: > 94%
COC(=O)c1nc(Cc2ccc(Cl)cc2Cl)[nH]c(=O)c1O | 5.7 | 
O=C(O)c1nc(Cc2ccsc2)[nH]c(=O)c1O | 2.4 | 
COC(=O)c1nc(-c2ccco2)[nH]c(=O)c1O | 3 | 
Cc1ccsc1-c1nc(O)c(O)c(C(=O)O)n1 | 1.4 | 
O=C(NCc1ccc(F)cc1)c1nc(-c2cccs2)nc(O)c1O | 0.7 | 
COC(=O)c1nc(-c2cccs2)nc(O)c1O | 0.88 | permeability [2]: 0.9 10^-6 cm/s
Cc1ccc(CNC(=O)c2nc(-c3cccs3)nc(O)c2O)cc1 | 1.9 | 
O=C(O)c1nc(-c2ccsc2)nc(O)c1O | 2.7 | 
O=C(O)c1nc(-c2ccc(-c3ccccc3)cc2)[nH]c(=O)c1O | 1.5 | permeability [2]: 0.06 10^-6 cm/s
O=C(O)c1nc(Cc2ccc(Cl)cc2Cl)[nH]c(=O)c1O | 3.8 | 
O=C(O)c1nc(-c2ccc(F)cc2)[nH]c(=O)c1O | 0.54 | 
COC(=O)c1nc(-c2ccccc2)[nH]c(=O)c1O | 1.1 | 
COC(=O)c1nc(-c2ccc(-c3ccccc3)cc2)[nH]c(=O)c1O | 0.78 | 
COC(=O)c1nc(Cc2ccc(F)cc2F)[nH]c(=O)c1O | 0.76 | 
COC(=O)c1nc(-c2ccc(F)cc2)[nH]c(=O)c1O | 0.86 | 
O=C(O)c1nc(Cc2cccs2)[nH]c(=O)c1O | 1.7 | 
Cc1nc(C(=O)O)c(O)c(=O)[nH]1 | 2.1 | 
O=C(O)c1nc(Cc2ccc(Cl)c(Cl)c2)nc(O)c1O | 0.67 | t1/2 [3]: > 120 h; remaining at 6 h [4]: > 94%; t1/2 [5]: > 120 h; solubility thermodynamic at 72 h [6]: ≥ 3170 µM; t1/2 [7]: > 24 h; t1/2 [8]: > 24 h; permeability [2]: 0.05 10^-6 cm/s; remaining at 6 h [9]: > 94%
O=C(O)c1nc(Cc2ccc(F)cc2F)[nH]c(=O)c1O | 1.4 | 
O=C(NCc1ccc(C(F)(F)F)cc1)c1nc(-c2cccs2)[nH]c(=O)c1O | 3 | 
O=C(NCc1ccc(Cl)cc1)c1nc(-c2cccs2)nc(O)c1O | 1.3 | 
COc1ccc(CNC(=O)c2nc(C)[nH]c(=O)c2O)cc1 | 0.59 | permeability [2]: 12.4 10^-6 cm/s
